From the supplement of paper PMC11451515

Test system: P12-Ichikawa
Experiment: cell viability relative to DMSO control; higher = less cytotoxic
Settings: 48 h
How it was run: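 NOMO1 or SEM cells were plated at 500 cells/well and P12-Ichikawa cells at 1000 cells/well in 1536-well plates (5 μl), after each leukemia line had been adapted for at least four passages in each medium. Pin dosing delivered library compounds in DMSO at 11 threefold concentrations, 47 μM to 0.79 nM. CellTiter-Glo One luminescence was read after 48 h at 37°C. Viability is reported as a per-plate percentage of DMSO wells, with cell-free wells as background.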

[1] = HPLM + 10% dialyzed FBS, 0.000781 µM
[2] = HPLM + 10% dialyzed FBS, 0.00234 µM
[3] = HPLM + 10% dialyzed FBS, 0.00702 µM
[4] = HPLM + 10% dialyzed FBS, 0.0211 µM
[5] = HPLM + 10% dialyzed FBS, 0.0632 µM
[6] = HPLM + 10% dialyzed FBS, 0.19 µM
[7] = HPLM + 10% dialyzed FBS, 0.569 µM
[8] = HPLM + 10% dialyzed FBS, 1.71 µM
[9] = HPLM + 10% dialyzed FBS, 5.12 µM
[10] = HPLM + 10% dialyzed FBS, 15.4 µM
[11] = HPLM + 10% dialyzed FBS, 46.1 µM
[12] = RPMI 5 mM glucose + 10% FBS, 0.000781 µM
[13] = RPMI 5 mM glucose + 10% FBS, 0.00234 µM
[14] = RPMI 5 mM glucose + 10% FBS, 0.00702 µM
[15] = RPMI 5 mM glucose + 10% FBS, 0.0211 µM
[16] = RPMI 5 mM glucose + 10% FBS, 0.0632 µM
[17] = RPMI 5 mM glucose + 10% FBS, 0.19 µM
[18] = RPMI 5 mM glucose + 10% FBS, 0.569 µM
[19] = RPMI 5 mM glucose + 10% FBS, 1.71 µM
[20] = RPMI 5 mM glucose + 10% FBS, 5.12 µM
[21] = RPMI 5 mM glucose + 10% FBS, 15.4 µM
[22] = RPMI 5 mM glucose + 10% FBS, 46.1 µM
[23] = RPMI 5 mM glucose + 10% dialyzed FBS, 0.000781 µM
[24] = RPMI 5 mM glucose + 10% dialyzed FBS, 0.00234 µM
[25] = RPMI 5 mM glucose + 10% dialyzed FBS, 0.00702 µM
[26] = RPMI 5 mM glucose + 10% dialyzed FBS, 0.0211 µM
[27] = RPMI 5 mM glucose + 10% dialyzed FBS, 0.0632 µM
[28] = RPMI 5 mM glucose + 10% dialyzed FBS, 0.19 µM
[29] = RPMI 5 mM glucose + 10% dialyzed FBS, 0.569 µM
[30] = RPMI 5 mM glucose + 10% dialyzed FBS, 1.71 µM
[31] = RPMI 5 mM glucose + 10% dialyzed FBS, 5.12 µM
[32] = RPMI 5 mM glucose + 10% dialyzed FBS, 15.4 µM
[33] = RPMI 5 mM glucose + 10% dialyzed FBS, 46.1 µM

Row | SMILES | cell viability [1] [%] | cell viability [2] [%] | cell viability [3] [%] | cell viability [4] [%] | cell viability [5] [%] | cell viability [6] [%] | cell viability [7] [%] | cell viability [8] [%] | cell viability [9] [%] | cell viability [10] [%] | cell viability [11] [%] | cell viability [12] [%] | cell viability [13] [%] | cell viability [14] [%] | cell viability [15] [%] | cell viability [16] [%] | cell viability [17] [%] | cell viability [18] [%] | cell viability [19] [%] | cell viability [20] [%] | cell viability [21] [%] | cell viability [22] [%] | cell viability [23] [%] | cell viability [24] [%] | cell viability [25] [%] | cell viability [26] [%] | cell viability [27] [%] | cell viability [28] [%] | cell viability [29] [%] | cell viability [30] [%] | cell viability [31] [%] | cell viability [32] [%] | cell viability [33] [%]
1 | CC(C)(F)C[C@H](N[C@@H](c1ccc(-c2ccc([S+](C)(=O)[O-])cc2)cc1)C(F)(F)F)C(=O)NC1(C#N)CC1 | 106 | 120 | 111 | 112 | 115 | 117 | 124 | 115 | 112 | 110 | 98.7 | 99.9 | 114 | 111 | 121 | 120 | 111 | 112 | 109 | 113 | 106 | 98.7 | 93.8 | 115 | 106 | 106 | 121 | 111 | 111 | 111 | 109 | 101 | 99.5
2 | [O-]C(=O)C/1=N/C(=O)NC(=O)N1 | 99 | 97 | 98.3 | 93.3 | 102 | 98 | 90.1 | 91.2 | 81.8 | 80.9 | 83.4 | 92.2 | 97.2 | 90 | 96.6 | 90.2 | 92.3 | 87.6 | 91.8 | 82.6 | 82.1 | 80.2 | 90.6 | 89.4 | 88.4 | 95.8 | 92.8 | 81.8 | 85.3 | 93.2 | 88 | 82.4 | 76.5
3 | CC1(CN2CCC(n3c(=O)[nH]c4ccccc43)CC2)OCc2ccccc2-n2cccc21 (centres undefined) | 99.7 | 97.6 | 105 | 98.7 | 102 | 104 | 94.4 | 99.9 | 99 | 99.6 | 92.8 | 96 | 99.9 | 93.1 | 94.8 | 98.3 | 98.5 | 106 | 109 | 102 | 96.8 | 87.9 | 94 | 92.5 | 96.4 | 97.2 | 97.7 | 99.2 | 94 | 93.8 | 98.7 | 94.3 | 98.5
4 | ClC1=CC=C2N/C3=N/C(=O)CN3CC2=C1Cl | 120 | 122 | 126 | 130 | 115 | 122 | 118 | 115 | 114 | 112 | 82.2 | – | – | – | – | – | – | – | – | – | – | – | 125 | 119 | 130 | 117 | 124 | 127 | 118 | 118 | 107 | 105 | 68.7
5 | CC(C)(S)[C@@H](N)C(=O)O | 108 | 112 | 115 | 120 | 106 | 120 | 113 | 122 | 117 | 115 | 108 | 100 | 109 | 114 | 121 | 96.1 | 112 | 118 | 121 | 115 | 125 | 99.5 | 104 | 110 | 103 | 115 | 98 | 109 | 107 | 112 | 114 | 111 | 95.8
6 | CC[N+](CC)(CC)CCOc1cccc(OCC[N+](CC)(CC)CC)c1OCC[N+](CC)(CC)CC | 116 | 109 | 101 | 107 | 127 | 120 | 98.9 | 91.6 | 100 | 107 | 97 | 124 | 115 | 112 | 124 | 114 | 115 | 107 | 108 | 111 | 110 | 103 | 108 | 101 | 108 | 109 | 120 | 109 | 100 | 104 | 103 | 95.2 | 100
7 | CC(C)=CCC/C(C)=C/CC/C(C)=C/CSc1ccccc1C(=O)O | 103 | 121 | 117 | 113 | 119 | 105 | 91.2 | 83.7 | 90.6 | 61 | 36.4 | 106 | 106 | 111 | 95.7 | 101 | 90 | 82.1 | 67.3 | 60 | 47.9 | 34.4 | 104 | 112 | 120 | 116 | 98.1 | 97.2 | 99.5 | 76.4 | 75.2 | 60 | 39.8
8 | Cc1cc(O)c2c(c1)C(=O)c1cccc(O)c1C2=O | 112 | 119 | 119 | 127 | 121 | 137 | 128 | 133 | 122 | 113 | 87.1 | – | – | – | – | – | – | – | – | – | – | – | – | – | – | – | – | – | – | – | – | – | –
9 | NC[C@@H]1O[C@H](O[C@H]2[C@@H](O)[C@H](O[C@@H]3[C@@H](O)[C@H](N)C[C@H](N)[C@H]3O[C@H]3O[C@H](CN)[C@@H](O)[C@H](O)[C@H]3N)O[C@@H]2CO)[C@H](N)[C@@H](O)[C@@H]1O.O=S(=O)(O)O.O=S(=O)(O)O.O=S(=O)(O)O | 108 | 96.4 | 108 | 107 | 105 | 107 | 103 | 103 | 107 | 99.5 | 98.3 | 102 | 97.9 | 104 | 98 | 103 | 97.6 | 101 | 98 | 100 | 96.4 | 96 | 105 | 100 | 105 | 103 | 96.8 | 102 | 102 | 93.3 | 94.6 | 97.9 | 93.4
10 | CC1=C(/C=C/C(C)=C/C=C/C(C)=C\C(=O)O)C(C)(C)CCC1 | 88.5 | 91.7 | 90.2 | 93.4 | 95.7 | 92.6 | 96.4 | 92.2 | 97.3 | 95.5 | 91.3 | 76.1 | 88.5 | 82.7 | 91 | 85.5 | 89.7 | 85.4 | 79.6 | 77.4 | 84.5 | 82.1 | 80.4 | 89.9 | 85 | 90 | 86.7 | 86.7 | 91.9 | 90.5 | 83.7 | 84.5 | 85.4
11 | C[C@@H]1O[C@@H](O[C@H]2C[C@@H](O)[C@]3(CO)[C@H]4[C@H](O)C[C@]5(C)[C@@H](C6=CC(=O)OC6)CC[C@]5(O)[C@@H]4CC[C@]3(O)C2)[C@H](O)[C@H](O)[C@H]1O | 98.5 | 96.7 | 97.5 | 85.2 | 32.9 | 11.5 | 10.7 | 12.3 | 12.7 | 12.9 | 9.88 | 92.2 | 105 | 102 | 94.7 | 80 | 33.6 | 9.32 | 8.91 | 6.97 | 6.93 | 5.78 | 98.8 | 101 | 98.7 | 88.7 | 56.4 | 17.6 | 9.86 | 8.22 | 6.53 | 5.46 | 4.89
12 | CCOC(=O)N1c2ccc(C(F)(F)F)cc2[C@@H](N(Cc2cc(C(F)(F)F)cc(C(F)(F)F)c2)C(=O)OC)C[C@H]1CC | 127 | 120 | 116 | 119 | 119 | 114 | 121 | 110 | 116 | 110 | 106 | 131 | 123 | 122 | 132 | 133 | 116 | 127 | 121 | 124 | 103 | 111 | 115 | 128 | 117 | 118 | 120 | 127 | 121 | 114 | 123 | 112 | 104
13 | Clc1cccc(-n2nnnc2NCc2ccccc2Oc2ccccn2)c1Cl | 120 | 120 | 116 | 124 | 123 | 136 | 133 | 133 | 133 | 131 | 127 | – | – | – | – | – | – | – | – | – | – | – | – | – | – | – | – | – | – | – | – | – | –
14 | COc1cccc2c1C(=O)c1c(O)c3c(c(O)c1C2=O)C[C@@](O)(C(=O)CO)C[C@@H]3O[C@H]1C[C@H](N)[C@H](O[C@H]2CCCCO2)[C@H](C)O1 | 122 | 127 | 123 | 123 | 115 | 125 | 121 | 92.3 | 9.81 | 113 | 99 | 122 | 122 | 120 | 127 | 117 | 122 | 106 | 70.2 | 6.23 | 108 | 94.6 | 125 | 121 | 102 | 128 | 117 | 114 | 97.5 | 71.5 | 7.42 | 93 | 84.7
15 | O=C(NCCCCN1CCOCC1)c1cc2ccccc2o1 | 119 | 122 | 119 | 115 | 114 | 120 | 113 | 117 | 112 | 112 | 102 | 115 | 122 | 120 | 118 | 106 | 116 | 107 | 105 | 101 | 95.5 | 101 | 123 | 128 | 123 | 131 | 118 | 120 | 115 | 108 | 116 | 110 | 108
16 | C[C@@H](NCCCc1cccc(C(F)(F)F)c1)c1cccc2ccccc12 | 120 | 123 | 117 | 125 | 109 | 118 | 114 | 118 | 113 | 100 | 115 | – | – | – | – | – | – | – | – | – | – | – | – | – | – | – | – | – | – | – | – | – | –
17 | O=C(CCCCCCC(=O)Nc1cccnc1)NO | 93 | 99.9 | 96.9 | 96.9 | 105 | 109 | 99.5 | 90.8 | 82.1 | 12.2 | 4.36 | 82.5 | 95.6 | 93.7 | 93.4 | 97.5 | 95.4 | 99.6 | 85.7 | 76.1 | 9.59 | 3.79 | 86.9 | 92.8 | 90.7 | 91.9 | 94.7 | 95.1 | 94.3 | 85.2 | 73.9 | 10 | 3.83
